Measured values taken from patent US4182774A, “Method of inhibiting blood platelet aggregation with 2-amino-3-(5- and 6-)benzoylphenylacetic acids, esters and metal salts thereof” (A. H. Robins Company, Incorporated, priority 1978, dated 1980).

Columns and labels:
[1] = tested on: Collagen-Induced Platelet Aggregation; assay: Collagen-induced platelet aggregation after oral dosing of rats (platelet rich plasma 2 h after dose); type: in vivo, rat
Procedure: The procedure used is essentially that as described by Born, J. of Phys. […] Rats were orally administered test drugs and after two hours the rats were bled and platelet rich plasma obtained. Collagen was added to the platelet rich plasma to induce platelet aggregation and comparisons were made between control and treated samples.

[2] = tested on: Adenosine Diphosphate-Induced Platelet Aggregation-Rabbit Plasma; assay: In vitro inhibition of adenosine diphosphate-induced platelet aggregation in rabbit plasma; type: cell-based; conditions: Table IV, ADP
Description: Effects on Adenosine Diphosphate-Induced
Platelet Aggregation-Rabbit Plasma

[3] = tested on: collagen-induced platelet aggregation in rabbit plasma; assay: Inhibition of collagen-induced platelet aggregation in rabbit plasma; type: cell-based; conditions: Table III
Description: ^1 Concentration required to inhibit aggregation by 50%.

[4] = tested on: Evans Blue-Carrageenan Pleural Effusion; assay: Modification of the Evans Blue-Carrageenan Pleural Effusion Assay (anti-inflammatory activity); type: in vivo; conditions: relative to 4-amino-3-benzoylphenylacetic acid; method of Sancilio
Procedure: The prior art (South African Patent 68/4682) discloses 4-amino-3-benzoylphenylacetic acid, m.p. 135°-7° C. The compound was prepared and tested for anti-inflammatory activity by the method of Sancilio referred to immediately hereinabove.

[5] = Table IV comment
[6] = Table I, 100.00 mg/kg PO, rats, collagen
[7] = Table I, 31.60 mg/kg PO, rats, collagen
[8] = Table I, 10.00 mg/kg PO, rats, collagen
[9] = Oryctolagus cuniculus, Platelet, 1.0 mM, read-out: Percent Inhibition

Q: What does the source list for CCCCC1C(=O)N(c2ccccc2)N(c2ccccc2)C1=O [Phenylbutazone]?
A: Percent Reduction in Aggregation ([1]; Table II, 50.0 mg/kg PO, 2 rats): -74%; inhibition at 400 µM ([2]; Oryctolagus cuniculus, Platelet, 0.4 mM, read-out: Percent Inhibition): 3%; inhibition at 800 µM ([2]; Oryctolagus cuniculus, Platelet, 0.8 mM, read-out: Percent Inhibition): 2%; Estimated IC50 (concentration required to inhibit aggregation by 50%) [3]: 150 µM

Q: Which “Percent Reduction in Aggregation” value ([1]; Table II, 316.0 mg/kg PO, 2 rats) does the source give for CC(=O)Oc1ccccc1C(=O)O [Acetylsalicylic Acid, reference compound] here?
A: -74%

Q: What about the Estimated IC50 (concentration required to inhibit aggregation by 50%) [3] of the same compound?
A: 23 µM

Q: With Nc1cccc(C(=O)c2ccccc2)c1CC(=O)O [2-amino-6-benzoylphenylacetic acid] as the compound, how does the “Anti-inflammatory activity, times the activity of the prior art 4-amino-3-benzoylphenylacetic acid” value (“Anti-inflammatory activity” below) [4] read?
A: ~3 times

Q: For Nc1c(CC(=O)O)cccc1C(=O)c1ccccc1 [Example 3, 2-Amino-3-benzoylphenylacetic Acid], which “Anti-inflammatory activity” value [4] is on record?
A: about 39 times

Q: Which results are given for Nc1c(CC(=O)O)cccc1C(=O)c1ccccc1 [Example 27, Sodium 2-Amino-3-benzoylphenylacetate Hydrate]?
A: Percent Reduction in Aggregation ([1]; Table I, 0.00032 mg/kg PO, rats, collagen): -76%; Percent Reduction in Aggregation ([1]; Table I, 1.30 mg/kg PO, rats, collagen): -44%; Percent Reduction in Aggregation ([1]; Table I, 5.10 mg/kg PO, rats, collagen): -68%; Percent Reduction in Aggregation [1, 6]: -77%

Q: For Nc1c(CC(=O)O)cccc1C(=O)c1ccc(Cl)cc1 [Example 14, Sodium 2-amino-3-(4-chlorobenzoyl)phenylacetate Hydrate], which “Percent Reduction in Aggregation” value [1, 7] is on record?
A: -27%

Q: And the “Percent Reduction in Aggregation” value [1, 6]?
A: -65%

Q: Which “Percent Reduction in Aggregation” value [1, 8] does the source give for CCOC(=O)Cc1cccc(C(=O)c2ccccc2)c1N [Example 9, Ethyl 2-amino-3-benzoylphenylacetate] here?
A: -49%

Q: What about the “Percent Reduction in Aggregation” value [1, 6] of the same compound?
A: -75%

Q: With CN(C)c1c(CC(=O)O)cccc1C(=O)c1ccccc1 [Example 12, 2-Dimethylamino-3-benzoylphenylacetic Acid] as the compound, how does the “Percent Reduction in Aggregation” value [1, 7] read?
A: -56%

Q: Which results are given for Nc1c(CC(=O)O)cc(Cl)cc1C(=O)c1ccccc1 [Example 6, 2-Amino-3-benzoyl-5-chlorophenylacetic Acid Hemihydrate]?
A: Percent Reduction in Aggregation [1, 8]: -36%; Percent Reduction in Aggregation [1, 6]: -76%

Q: For COc1ccc(C(=O)c2cccc(CC(=O)O)c2N)cc1 [Example 24, 2-Amino-3-(4-methoxybenzoyl)phenylacetic Acid], which “Percent Reduction in Aggregation” value ([1]; Table I, 0.00063 mg/kg PO, rats, collagen) is on record?
A: -73%

Q: What about the “Percent Reduction in Aggregation” value ([1]; Table I, 4.00 mg/kg PO, rats, collagen) of the same compound?
A: -88%

Q: What about the “Percent Reduction in Aggregation” value ([1]; Table I, 25.00 mg/kg PO, rats, collagen) of the same compound?
A: -71%

Q: What about the “Percent Reduction in Aggregation” value [1, 6] of the same compound?
A: -81%

Q: Which “Percent Reduction in Aggregation” value ([1]; Table I, 0.20 mg/kg PO, rats, collagen, Trihydrate, 0.2 mg/kg) does the source give for Nc1c(CC(=O)O)cccc1C(=O)c1ccccc1 [Example 25, Magnesium 2-amino-3-benzoylphenylacetate Trihydrate] here?
A: -25%

Q: With Nc1c(CC(=O)O)cccc1C(=O)c1ccccc1 [Example 8, Sodium 2-amino-3-benzoylphenylacetate Dihydrate] as the compound, how does the “Percent Reduction in Aggregation” value ([1]; Table I, 8.00 mg/kg PO, rats, collagen) read?
A: -63%

Q: What about the “Percent Reduction in Aggregation” value ([1]; Table II, 8.0 mg/kg PO, 3 rats) of the same compound?
A: -63%

Q: What about the inhibition at 100 µM ([2]; Oryctolagus cuniculus, Platelet, 0.1 mM, read-out: Percent Inhibition) of the same compound?
A: 4%

Q: What about the inhibition at 1000 µM [2, 9] of the same compound?
A: 8%

Q: And the inhibition at 10000 µM ([2]; Oryctolagus cuniculus, Platelet, 10.0 mM, read-out: Percent Inhibition)?
A: 82%

Q: What about the Estimated IC50 (Comment) [2] of the same compound?
A: 4000 µM

Q: What about the Estimated IC50 (concentration required to inhibit aggregation by 50%) [3] of the same compound?
A: 0.2 µM

Q: What about the “Estimated IC50 (concentration required to inhibit aggregation by 50%), value in parentheses” value [3] of the same compound?
A: 0.2 µM

Q: Which “Comment: solubility precludes higher testing” value [5] does the source give for O=C(O)c1ccccc1O [Salicyclic Acid] here?
A: precludes higher

Q: What about the “Percent Inhibition” value ([2]; 0.05 mM) of the same compound?
A: 7%

Q: What about the “Percent Inhibition” value ([2]; 0.50 mM) of the same compound?
A: 7%

Q: And the “Percent Inhibition” value ([2]; 1.0 mM)?
A: 12%

Q: And the “Percent Inhibition” value ([2]; 10.0 mM)?
A: 20%

Q: What does the source list for CC(C(=O)[O-])c1cccc(C(=O)c2ccccc2)c1N.O.[Na+] (stereo not drawn) [Example 15, Sodium 2-amino-3-benzoyl-α-methylphenylacetate Hydrate]?
A: Percent Reduction in Aggregation ([1]; Table I, 3.00 mg/kg PO, rats, collagen): -56%; Percent Reduction in Aggregation [1, 7]: -48%; Percent Reduction in Aggregation [1, 6]: -76%

Q: Which “Anti-inflammatory activity” value [4] does the source give for Nc1c(CC(=O)[O-])cccc1C(=O)c1ccccc1.[Na+] [sodium 2-amino-3-benzoylphenylacetate] here?
A: ~48 times

Q: Which “Percent Reduction in Aggregation” value ([1]; Table I, 0.20 mg/kg PO, rats, collagen, Hydrate, 0.2 mg/kg) does the source give for Nc1c(CC(=O)O)cccc1C(=O)c1ccccc1 [Example 16, Potassium 2-amino-3-benzoylphenylacetate Hydrate] here?
A: -56%

Q: For O=C(O)c1ccccc1Nc1cccc(C(F)(F)F)c1 [Flufenamic Acid], which Estimated IC50 (concentration required to inhibit aggregation by 50%) [3] is on record?
A: 2 µM

Q: For Nc1ncnc2c1ncn2[C@@H]1O[C@H](CO)[C@@H](O)[C@H]1O [Adenosine], which inhibition at 1000 µM [2, 9] is on record?
A: 84%
